Where a SMILES comes first, the peptide text is derived from it. Where no end group is shown, it is not given here. [ ]: non-standard residue; d: D form. Aib = CC(C)(N)C(=O)O
Key:
[1] = CD spectroscopy of cell-penetrating peptides (helicity); conditions: for helicity ([θ]222/[θ]208): CD spectra; for secondary structure / helix stabilization by CD: 10 mM potassium phosphate, pH 7.4, 20° C.
Experimental: The concentration of peptides/proteins was 5-20 μM in general. Spectra were obtained using a Jasco J-1500 CD spectrometer (JASCO, Japan) or a Chirascan CD spectrometer (Applied Photophysics, UK). Scanning was carried out using a cuvette with a path length of 1 mm. MRE (mean residue ellipticity) was calculated per amino acid residue.
The cell-penetrating peptides (CPP1 TO 13 and CPP11d) were dissolved respectively in 10 mM potassium phosphate. The analysis was performed under the condition of pH 7.4 and 20° C.

[2] = system: BALB/c nude mice; assay: In-vivo fluorescence imaging (IVIS) of living mice, targeting; conditions: FAM-labeled, IV 5 mg/kg, 4 hours; for bioaccumulation / targeting activity in the body: comparison with existing CPPs; for in-vivo targeting site: 200 μL
Experimental: All animal experimental procedures including sample administration and euthanasia were performed in accordance with the strict guidelines of the Yonsei University Health System Institutional Animal Care and Use Committee. Female 7-week BALB/c nude mice were purchased from Orient Bio Company (Korea). Fluorescence-labeled peptide (sample) (10 mg/kg) was injected via the lateral tail vein of the mice. Fluorescence images were acquired at different times (0, 4, 8 and 12 hours) using an in-vivo imaging system (IVIS; PerkinElmer, USA) and the images were analyzed with the Living Image software (PerkinElmer).
Female 7-week-old BALB/c nude mice were injected IV (intravenously) with the cell-penetrating peptide prepared in Example 10 (CPP10) at 10 mg/kg or 1 mg/kg via the lateral tail vein and imaged using IVIS (in-vivo imaging system) (PerkinElmer, USA) 4 hours later. The images were analyzed with the Living Image software (PerkinElmer). The mice were analyzed from the top, bottom (belly) and side positions (FIG. 44A). Then, after administering the same volume of the cell-penetrating peptide prepared in Example 10 (CPP10) at 10 mg/kg via IV (intravenous) or IP (intraperitoneal) injection, the mice were imaged 4 hours later (FIG. 44B).
Next, female 7-week-old BALB/c nude mice were injected IV (intravenously) with the cell-penetrating peptide of Example 10 (CPP10), the cell-penetrating peptide of Example 11 (CPP11) or the cell-penetrating peptide of Example 14 (CPP11d) at 10 mg/kg via the lateral tail vein, and they were imaged 30 minutes and 6 hours later using IVIS (in-vivo imaging system) (PerkinElmer, USA). The images were analyzed with the Living Image software (PerkinElmer) (FIG. 44C). In FIGS. 44A and 44B, the cell-penetrating peptides were labeled with TAMRA (5 (6)-carboxytetramethylrhodamine). In FIG. 44C, the cell-penetrating peptides were labeled with FAM.
The images were analyzed with the Living Image software (PerkinElmer) (FIGS. 50 and 51).
The cell-penetrating peptide prepared in Example 11 (CPP11) was also administered at the same concentration and then analyzed by IVIS 1 hour later (FIG. 51). The cell-penetrating peptide was used after labeling with FAM.
4 hours later, the mice were imaged using IVIS (in-vivo imaging system) (PerkinElmer, USA) and the images were analyzed with the Living Image software (PerkinElmer) (FIG. 53).
The cell-penetrating peptide prepared in Example 11 (CPP11) was also administered at the same concentration and then analyzed by IVIS 1 hour later (FIG. 53). The cell-penetrating peptide was used after labeling with FAM.
Female 7-week-old BALB/c nude mice were injected IV (intravenously) with 200 μL of the cell-penetrating peptide of Example 11 (CPP11) or the existing cell-penetrating peptides (Rev ARM, Tat, penetratin and R8) at 5 mg/kg via the lateral tail vein. 4 hours later, the mice were imaged using IVIS (in-vivo imaging system) (PerkinElmer, USA) and the images were analyzed with the Living Image software (PerkinElmer) (FIGS. 54 and 55). The cell-penetrating peptides were used after labeling with FAM.

UAUNRRAQUAUNRRAQUAUNRRAQUAUNRRAQUAU ([Aib]A[Aib]NRRAQ[Aib]A[Aib]NRRAQ[Aib]A[Aib]NRRAQ[Aib]A[Aib]NRRAQ[Aib]A[Aib]-NH2) [CPP16]
helicity ([θ]222/[θ]208) [1]: 0.66

QARRNQARRNQARRNQARRN [CPP6]
secondary structure / helix stabilization by CD [1]: mostly in random coil state

N=C(N)NCCC[C@H](NC(=O)[C@H](CCCNC(=N)N)NC(=O)[C@H](CCCNC(=N)N)NC(=O)[C@H](CCC(N)=O)NC(=O)[C@H](CCCNC(=N)N)NC(=O)[C@H](CCCNC(=N)N)NC(=O)[C@H](CCCCN)NC(=O)[C@H](CCCCN)NC(=O)[C@H](CCCNC(=N)N)NC(=O)CNC(=O)[C@@H](N)Cc1ccc(O)cc1)C(N)=O [Tat, Tyr-Gly-Arg-Lys-Lys-Arg-Arg-Gln-Arg-Arg-Arg, reference compound]
bioaccumulation [2]: did not show significant bioaccumulation | targeting activity in the body [2]: did not show targeting activity for specific sites in the body

C[C@H](NC(=O)[C@H](CCC(N)=O)NC(=O)C(C)(C)NC(=O)CNC(=O)C(C)(C)NC(=O)[C@H](CC(N)=O)NC(=O)[C@H](CCCNC(=N)N)NC(=O)[C@H](CCCNC(=N)N)NC(=O)[C@H](C)NC(=O)[C@H](CCC(N)=O)NC(=O)C(C)(C)NC(=O)[C@H](C)NC(=O)C(C)(C)NC(=O)[C@H](CC(N)=O)NC(=O)[C@H](CCCNC(=N)N)NC(=O)[C@H](CCCNC(=N)N)NC(=O)[C@H](C)NC(=O)[C@H](CCC(N)=O)NC(=O)C(C)(C)NC(=O)[C@H](C)NC(=O)C(C)(C)N)C(=O)N[C@@H](CCCNC(=N)N)C(=O)N[C@@H](CCCNC(=N)N)C(=O)N[C@@H](CC(N)=O)C(=O)NC(C)(C)C(=O)NCC(=O)NC(C)(C)C(=O)N[C@@H](CCC(N)=O)C(=O)N[C@@H](C)C(=O)N[C@@H](CCCNC(=N)N)C(=O)N[C@@H](CCCNC(=N)N)C(=O)N[C@@H](CC(N)=O)C(=O)NC(C)(C)C(=O)N[C@@H](C)C(=O)NC(C)(C)C(N)=O [CPP20] (HELM PEPTIDE1{[Aib].A.[Aib].Q.A.R.R.N.[Aib].A.[Aib].Q.A.R.R.N.[Aib].G.[Aib].Q.A.R.R.N.[Aib].G.[Aib].Q.A.R.R.N.[Aib].A.[Aib].[am]}$$$$V2.0; N-terminus assumed)
in-vivo targeting site [2]: target the ear | accumulation efficiency in the ear ([2]; among CPP19 to 21): much superior accumulation efficiency in the ear | helicity ([θ]222/[θ]208) ([1]; listed as Example 21): 0.565

RRRRRRRR [R8, reference compound]
bioaccumulation [2]: did not show significant bioaccumulation | targeting activity in the body [2]: did not show targeting activity for specific sites in the body

UAUNARRQUAUNARRQUAUNARRQUAUNARRQUAU ([Aib]A[Aib]NARRQ[Aib]A[Aib]NARRQ[Aib]A[Aib]NARRQ[Aib]A[Aib]NARRQ[Aib]A[Aib]-NH2) [CPP18]
helicity ([θ]222/[θ]208) [1]: 0.72

UAUQARRNUAUQARRNUAUQARRNUAUQARRNUAUQARRNUAU ([Aib]A[Aib]QARRN[Aib]A[Aib]QARRN[Aib]A[Aib]QARRN[Aib]A[Aib]QARRN[Aib]A[Aib]QARRN[Aib]A[Aib]; not fully specified) [CPP13]
secondary structure / helix stabilization by CD [1]: not further increased

QARRNQARRNQARRNQARRNQARRN [CPP7]
secondary structure / helix stabilization by CD [1]: mostly in random coil state

UAUQRARNUAUQRARNUAUQRARNUAUQRARNUAU ([Aib]A[Aib]QRARN[Aib]A[Aib]QRARN[Aib]A[Aib]QRARN[Aib]A[Aib]QRARN[Aib]A[Aib]-NH2; not fully specified) [CPP14]
helicity ([θ]222/[θ]208) [1]: 0.81

UAUNRARQUAUNRARQUAUNRARQUAUNRARQUAU ([Aib]A[Aib]NRARQ[Aib]A[Aib]NRARQ[Aib]A[Aib]NRARQ[Aib]A[Aib]NRARQ[Aib]A[Aib]-NH2) [CPP17]
helicity ([θ]222/[θ]208) [1]: 0.78

UAUQRRANUAUQRRANUAUQRRANUAUQRRANUAU ([Aib]A[Aib]QRRAN[Aib]A[Aib]QRRAN[Aib]A[Aib]QRRAN[Aib]A[Aib]QRRAN[Aib]A[Aib]-NH2; not fully specified) [CPP15]
helicity ([θ]222/[θ]208) [1]: 0.66

AUAUARQARRNRQARRNRQARRNAUAUA (A[Aib]A[Aib]ARQARRNRQARRNRQARRNA[Aib]A[Aib]A; not fully specified (C-terminus)) [CPP4]
secondary structure / helix stabilization by CD [1]: helical structure was somewhat stabilized

UAURQARRNUAURQARRNUAURQARRNUAURQARRNUAU ([Aib]A[Aib]RQARRN[Aib]A[Aib]RQARRN[Aib]A[Aib]RQARRN[Aib]A[Aib]RQARRN[Aib]A[Aib]; not fully specified (C-terminus)) [CPP5]
secondary structure / helix stabilization by CD [1]: helical structure was somewhat stabilized

C[C@H](NC(=O)[C@H](CCC(N)=O)NC(=O)C(C)(C)NC(=O)CNC(=O)C(C)(C)NC(=O)[C@H](CC(N)=O)NC(=O)[C@H](CCCNC(=N)N)NC(=O)[C@H](CCCNC(=N)N)NC(=O)[C@H](C)NC(=O)[C@H](CCC(N)=O)NC(=O)C(C)(C)NC(=O)[C@H](C)NC(=O)C(C)(C)NC(=O)[C@H](CC(N)=O)NC(=O)[C@H](CCCNC(=N)N)NC(=O)[C@H](CCCNC(=N)N)NC(=O)[C@H](C)NC(=O)[C@H](CCC(N)=O)NC(=O)C(C)(C)NC(=O)[C@H](C)NC(=O)C(C)(C)NC(=O)[C@H](CC(N)=O)NC(=O)[C@H](CCCNC(=N)N)NC(=O)[C@H](CCCNC(=N)N)NC(=O)[C@H](C)NC(=O)[C@H](CCC(N)=O)NC(=O)C(C)(C)NC(=O)[C@H](C)NC(=O)C(C)(C)N)C(=O)N[C@@H](CCCNC(=N)N)C(=O)N[C@@H](CCCNC(=N)N)C(=O)N[C@@H](CC(N)=O)C(=O)NC(C)(C)C(=O)N[C@@H](C)C(=O)NC(C)(C)C(N)=O [CPP19] (HELM PEPTIDE1{[Aib].A.[Aib].Q.A.R.R.N.[Aib].A.[Aib].Q.A.R.R.N.[Aib].A.[Aib].Q.A.R.R.N.[Aib].G.[Aib].Q.A.R.R.N.[Aib].A.[Aib].[am]}$$$$V2.0; N-terminus assumed)
in-vivo targeting site [2]: target the ear | helicity ([θ]222/[θ]208) [1]: ≥ 0.7 | helicity ([θ]222/[θ]208) ([1]; listed as Example 20): 0.706

TRQARRNRRRRWRERQR [Rev ARM, reference compound]
bioaccumulation [2]: did not show significant bioaccumulation | targeting activity in the body [2]: did not show targeting activity for specific sites in the body

From US20240368230A1, “CELL-PENETRATING PEPTIDES COMPRISING MULTIPLE 5-MER ALPHA-HELIX FRAGMENTS AND USES THEREOF” (ArtProBio Co., Ltd., priority 2023, published 2024)
